Experimental data taken from patent US10258635B2, “Formulations and compositions of vitamin D analogs for treating and preventing cancer and other diseases” (priority 2013, dated 2019).
“Also recorded” adds a separate entry of the source.

Assays:
[1] = test system: normal kidney cells; assay: 3H-thymidine incorporation assay in normal kidney cells; assay type: cell-based; details: 10^−6M
[2] = test system: DU-145 cells; assay: 3H-thymidine incorporation assay in DU-145 cells; assay type: cell-based, human; details: for anti-proliferative effect in DU-145 cells: 10^−6M, separate experiment
[3] = test system: DU-145 human prostate cancer cells; assay: DU-145 xenograft efficacy, p.o. administration (Example 11); assay type: in vivo, nude mice; details: p.o.; calcitriol 0.5 μg/kg and 1.0 μg/kg; AMPI-109 0.5 μg/kg
[4] = test system: PZ-HPV-7 (immortalized normal prostate) cells; assay: 3H-thymidine incorporation assay, PZ-HPV-7; assay type: cell-based
Protocol: (§1) Antiproliferation studies of keratinocytes (normal skin), MCF-7 (breast cancer), PZ-HPV-7 (immortalized normal prostate), LNcap (androgen-sensitive prostate cancer) and PC-3 (androgen-insensitive prostate cancer) cells, treated with 10^−6M of 25-OH-D3-3-BE (AMPI-105) or 1,25(OH)2D3 (bioactive Vitamin D3 hormone) were performed with a ^3H-thymidine incorporation assay
(§2) PZ-HPV-7 cells were grown in MCDB media containing pituitary extract, epidermal growth factor (EGF) and 1% penicillin/streptomycin. Keratinocytes were also grown in the same media with additional PG1 and insulin. PC-3, LNCaP, DU-145 cells were grown in RPMI media containing 10% fetal bovine serum (FBS) and antibiotics. MCF-7 cells were grown in DMEM media containing 10% FBS and antibiotics. LAPC-4 cells were maintained in IMEM media containing antibiotics, 1° % L-glutamine and 10 nM of R1881, a synthetic […]. MC3T3 mouse bone cells were grown in α-MEM media containing 10% FBS and antibiotics. In general, cells were grown in 35 mm dishes to 70-80% confluence and then plated into 24-well plates in respective media. After the cells grew to approximately 70% confluence, they were serum-starved for 20 hours (MCF-7, PC-3, LNCaP and DU-145 cells) followed by incubation with steroid samples. […]

[5] = test system: LNCaP (androgen-sensitive prostate cancer) cells; assay: 3H-thymidine incorporation assay, LNCaP (Example 13); assay type: cell-based
Protocol: as §1
(§3) PZ-HPV-7 cells were grown in MCDB media containing pituitary extract, epidermal growth factor (EGF) and 1% penicillin/streptomycin. Keratinocytes were also grown in the same media with additional PG1 and insulin. PC-3, LNCaP, DU-145 cells were grown in RPMI media containing 10% fetal bovine serum (FBS) and antibiotics. MCF-7 cells were grown in DMEM media containing 10% FBS and antibiotics. LAPC-4 cells were maintained in IMEM media containing antibiotics, 1° % L-glutamine and 10 nM of R1881, a synthetic […]. MC3T3 mouse bone cells were grown in α-MEM media containing 10% FBS and antibiotics. In general, cells were grown in 35 mm dishes to 70-80% confluence and then plated into 24-well plates in respective media. After the cells grew to approximately 70% confluence, they were serum-starved for 20 hours (MCF-7, PC-3, LNCaP and DU-145 cells) followed by incubation with steroid samples. Keratinocytes and PZ-HPV-7 cells, after reaching 70% confluence, were kept in MCDB media without additives for 20 hours before treatment with steroids. In general, reagents were dissolved in ethanol (EtOH), and dilution with the media was adjusted in such a way that the concentration of EtOH was 0.1% v/v.
(§4) Assays were carried out with six (6) replicates and student's t-test was employed for statistical analysis. Results are expressed relative to EtOH (100%) in FIG. 24.

[6] = test system: PC-3 (androgen-insensitive prostate cancer) cells; assay: 3H-thymidine incorporation assay, PC-3; assay type: cell-based; details: 10^−6 M; for growth reduction of PC-3 cells: relative to EtOH
Protocol: as §1, §3, §4

[7] = test system: LNCaP cells; assay: Cell counting assay, LNCaP; assay type: cell-based; details: 24 hours; 10^−6 M 25-OH-D3-3-BE, 10^−7 M 1,25(OH)2D3; not serum-starved
Protocol: as §3
(§5) It should be noted that in this assay cells were not serum-starved prior to addition of the reagents, and 10^−7 M of 1,25(OH)2D3 had little effect on all the cells.

[8] = test system: LAPC-4 cells; assay: Cell counting assay, LAPC-4; assay type: cell-based; details: 24 hours; 10^−6 M 25-OH-D3-3-BE, 10^−7 M 1,25(OH)2D3; not serum-starved
Protocol: as §3, §5

[9] = test system: MCF-7 cells; assay: Cell counting assay, MCF-7; assay type: cell-based; details: 48 hr; 10^−6 M 25-OH-D3-3-BE, 10^−7 M 1,25(OH)2D3; not serum-starved
Protocol: as §3, §5

[10] = test system: MC3T3 mouse bone cells; assay: Cell counting assay, MC3T3; assay type: cell-based; details: 48 hr; 10^−6 M 25-OH-D3-3-BE, 10^−7 M 1,25(OH)2D3; not serum-starved
Protocol: as §3, §5

[11] = test system: Normal prostate WPMY cells; assay: Viability testing by MTT reduction in normal prostate cells; assay type: cell-based; details: 24 hours; AMPI-107 1 and 10 μM, Calcitrol 1 μM
Protocol: MTT is reduced in metabolically active cells, in part by the action of dehydrogenase enzymes, to generate reducing equivalents such as NADH and NADPH. The resulting intracellular purple formazan can be solubilized and quantified by spectrophotometry. After 5 minutes at room temperature, absorbances in plates were measured using a plate analyzer set for in dual wavelength comparisons at wavelength of 540 nm with a reference wavelength of 620 nm.

[12] = test system: DU-145 Prostate Cancer Cells; assay: Cell-counting antiproliferative evaluation, DU-145; assay type: cell-based, human; details: Calcitrol 10^−6M, AMPI-107 10^−5M; dosed days 1, 3, 5, counted 7th day
Protocol: (§6) Prostate cancer cells (DU-145, PC-3 and LNCaP) were grown in DMEM medium with 10% FBS, antibiotics, etc. […] Results are designated as percentage of ethanol control.

[13] = test system: LNCaP prostate cancer cells; assay: Cell-counting antiproliferative evaluation, LNCaP; assay type: cell-based; details: Calcitrol 10^−6M, AMPI-107 10^−5M; dosed days 1, 3, 5, counted 7th day
Protocol: as §6

[14] = test system: PC-3 Prostate Cancer Cells; assay: Cell-counting antiproliferative evaluation, PC-3; assay type: cell-based; design: dose or concentration left out as unconfirmed; details: dosed days 1, 3, 5, counted 7th day
Protocol: as §6

[15] = test system: DU 145 human androgen-insensitive prostate cancer cells; assay: AMPI-107 in DU 145 xenograft, i.p. administration (Example 17); assay type: in vivo
Source text: (§7) Male, athymic mice (average weight 20 gm) were fed normal rat chow and water ad libitum. They were inoculated with DU 145 human androgen-insensitive prostate cancer cells (10^6), grown in culture in the flank under light anesthesia. […] Treatment started on day 11 and stopped on day 30; and they were left untreated for two (2) additional days when they were sacrificed.

[16] = test system: DU 145 human androgen-insensitive prostate cancer cells; assay: AMPI-107 in DU 145 xenograft, p.o. administration (Example 17); assay type: in vivo
Source text: as §7

[17] = test system: 24-OHase; assay: Message for 24-OHase in LNCaP cells; assay type: cell-based
[18] = test system: RCC 54 kidney cancer cells; details: 7.5×10^−7 to 10^−6M
Protocol: In a typical assay cells were grown to 50-60% confluence in 24-well plates in respective media containing 5% FBS, and serum starved for 20 hours, followed by treatment with various agents (in 0.1% ethanolic solution) or ethanol (vehicle) in serum-containing medium for 16 hours. After the treatment media was removed from the wells and replaced with media containing ^3H-thymidine (Sigma, 0.1 μCi) per well, and the cells were incubated for 3 hours at 37° C. After this period media was removed by aspiration and the cells were washed thoroughly (3×0.5 ml) with PBS. Ice-cold 5% perchloric acid solution (0.5 ml) was added to each well and the cells were incubated on ice for 20 minutes. After this incubation, perchloric acid was removed by aspiration, replaced with 0.5 ml of fresh perchloric acid solution and the cells were incubated at 70° C. for 20 minutes. Solution from each well was mixed with scintillation fluid and counted in a liquid scintillation counter. There were eight (8) wells per sample; statistics was carried out by Student's t test.

[19] = test system: keratinocytes (normal skin); assay: 3H-thymidine incorporation assay, keratinocytes; assay type: cell-based; details: 10^−6M
Protocol: as §1, §2

[20] = test system: MCF-7 (breast cancer) cells; assay: 3H-thymidine incorporation assay, MCF-7; assay type: cell-based; details: 10^−6M
Protocol: as §1, §2

[21] = test system: DU 145 cells; assay: Efficacy study of 25-OH-D3-3-BE in DU 145 tumor-bearing athymic nude mice (oral gavage); assay type: in vivo; details: for average tumor volume at the end of treatment: oral gavage every third day, day 11 to 31; for anti-tumor effect: mouse prostate tumor xenograft model
Protocol: Male, athymic nude mice (average weight 20 gm) were fed normal rat chow and water ad libitum. They were inoculated with DU 145 cells, grown in culture, in the flank under light anesthesia. […] Administration of the compound was done by oral gavage on every third day (when weights were determined). Treatment started on day 11 and stopped on day 31; and they were left untreated for several additional days (as shown in FIG. 26) when they were sacrificed and blood was collected.

Compound: C=C1/C(=C\C=C2/CCC[C@]3(C)[C@@H]([C@H](C)CCCC(C)(C)O)CC[C@@H]23)C[C@@H](O)C[C@@H]1O [calcitriol, 1,25-dihydroxyvitamin D3, reference compound]
- impact on normal kidney cells versus control [1]: neither Calcitriol nor AMPI-109 had any statistically different impact
- antiproliferative effect in DU-145 cells ([2]; 2.5×10^−7M to 10^−6M, 20 hours): no effect
- anti-proliferative effect in DU-145 cells [2]: failed to produce any discernible anti-proliferative effect
- body weight [3]: significant loss in body weight
- inhibition at 1 µM ([4]; Prostate cell, read-out: growth inhibition of PZ-HPV-7 cells): ~65%
- inhibition at 1 µM ([5]; Homo sapiens, LNCaP, read-out: growth inhibition of LNCaP cells): ~60%
- growth reduction of PC-3 cells [6]: 70%
- number of LNCaP cells [7]: little effect
- number of LAPC-4 cells [8]: little effect
- number of MCF-7 cells [9]: little effect
- number of MC3T3 cells [10]: little effect
- cell metabolism (MTT reduction) [11]: slightly, but significantly reduce cell metabolism
- growth inhibitory activity in DU-145 cells [12]: approximately similar growth inhibitory activity
- growth inhibition of LNCaP cells [13]: strongly inhibited the growth
- growth inhibition of PC-3 cells [14]: strongly inhibited the growth
- toxicity (body weight) ([15]; mouse, in vivo, ip, 1 mg/kg): clearly toxic as evidenced by considerable loss of body weight
- toxicity (body weight) ([16]; mouse, in vivo, po, 1 mg/kg): clearly toxic as evidenced by considerable loss of body weight
- message for 24-OHase [17]: up regulated
- reduction of proliferation of RCC 54 kidney cancer cells [18]: did not have any statistically different impact

Compound: C=C1CC[C@H](O)C/C1=C/C=C1\CCC[C@]2(C)[C@@H]([C@H](C)CCCC(C)(C)O)CC[C@@H]12 [25-OH-D3, 25-hydroxyvitamin D3, reference compound]
- growth reduction of PC-3 cells [6]: marginal antiproliferative effect

Compound: Vitamin D3-3-epoxide [AMPI-107]
- growth inhibitory activity in DU-145 cells [12]: approximately similar growth inhibitory activity; also recorded: equally effective
- growth inhibition of LNCaP cells [13]: strongly inhibited the growth and significantly stronger effect and more
- efficacy on tumor size ([15]; 1 mg/kg i.p. every third day, day 11 to 30): strongly reduced tumor size
- toxicity (body weight) ([15]; i.p., hormone 0.5 and 1.0 μg/kg, MPI 107 1 mg/kg): completely non-toxic
- efficacy on tumor size ([16]; 1 mg/kg p.o. every third day, day 11 to 30): strongly reduced tumor size
- toxicity (body weight) ([16]; p.o., hormone 0.5 and 1.0 μg/kg, MPI 107 1 mg/kg): completely non-toxic

Compound: C=C1/C(=C\C=C2/CCC[C@]3(C)[C@@H]([C@H](C)/C=C/C=C/C(O)(CC)CC)CC[C@@H]23)C[C@@H](O)C[C@@H]1O [EB-1089, reference compound]
- anti-proliferative effect in DU-145 cells [2]: failed to produce any discernible anti-proliferative effect

Compound: C=C1CCC(OC(=O)CBr)CC1=CC=C1CCCC2(C)C1CCC2C(C)CCCC(C)(C)O (stereo not drawn) [AMPI-105, 25-hydroxyvitamin D3-3-bromoacetate]
- growth inhibition in keratinocytes relative to 1,25(OH)2D3 [19]: stronger than an equivalent amount of 1,25 (OH)2D3
- growth inhibition in MCF-7 cells relative to 1,25(OH)2D3 [20]: weaker than 1,25(OH)2D3
- growth inhibition of PZ-HPV-7 cells ([4]; 10^−6 M, relative to EtOH): approximately 50%
- cytotoxicity to LNCaP cells ([5]; 10^−6 M, phase contrast microscope): cytotoxic
- growth inhibition of LNCaP cells ([5]; 10^−6 M, relative to EtOH): ~98%
- cytotoxicity to PC-3 cells ([6]; phase contrast microscope): cytotoxic
- growth reduction of PC-3 cells [6]: 90%
- number of LNCaP cells [7]: sharply reduced number of cells
- number of LAPC-4 cells [8]: sharply reduced number of cells
- number of MCF-7 cells [9]: affected to a much lesser extent
- number of MC3T3 cells [10]: affected to a much lesser extent
- average tumor volume at the end of treatment ([21]; 0.25 μg/kg): 650 mm^3
- average tumor volume at the end of treatment ([21]; 0.5 μg/kg): 500 mm^3
- gross weight of the animals versus untreated ([21]; during and after the treatment): no significant difference
- anti-tumor effect [21]: strong anti-tumor activity
- anti-tumor effect ([21]; listed as 25-OH-D3-3-BE): dose-dependent anti-tumor effect

Compound: 25-hydroxyvitamin D3-3-epoxide [AMPI-106]
- anti-tumor effect [21]: strong anti-tumor activity

Compound: C=C1/C(=C\C=C2/CCC[C@]3(C)[C@@H]([C@H](C)/C=C/[C@@H](O)C4(C(=O)OCCCC)CC4)CC[C@@H]23)C[C@@H](O)C[C@@H]1O [ZK 159222]
- message for 24-OHase [17]: obliterated
